pEC50: −log10 of the molar value.

The subject of this experiment is HCV 1b-377-neo replicon cells. Description: HCV Replicon assay, HCV 1b genotype. The class given is cell-based. To be noted: Hepatitis C virus, class symbol, read-out: EC50 range against HCV 1b. The method, then:
An HCV Replicon assay was utilized in the present disclosure, and was prepared, conducted and validated as described in commonly owned PCT/US2006/022197 and in O'Boyle et. al. Antimicrob Agents Chemother. 2005 April; 49(4): 1346-53.
HCV 1b-377-neo replicon cells were used to test the currently described compound series as well as cells resistant to compound A containing a Y2065H mutation in NS5A (described in application PCT/US2006/022197). The compounds tested were determined to have more than 10-fold less inhibitory activity on cells containing the mutation than wild-type cells indicating a related mechanism of action between the two compound series. Thus, the compounds of the present disclosure can be effective to inhibit the function of the HCV NS5A protein and are understood to be as effective in combinations as previously described in application PCT/US2006/022197 and commonly owned WO/04014852. Further, the compounds of the present disclosure can be effective against the HCV 1b genotype. It should also be understood that the compounds of the present disclosure can inhibit multiple genotypes of HCV. […] In one embodiment compounds of the present disclosure are active against the 1a, 1b, 2a, 2b, 3a, 4a, and 5a genotypes.

With `COC(=O)N[C@H](C(=O)N1CCC[C@H]1c1ncc(-c2ccc3c(c2)C2(CCC2)c2cc(-c4cnc([C@@H]5CCCN5C(=O)[C@@H](NC(=O)OC)C(C)C)[nH]4)ccc2-3)[nH]1)C(C)C` [Example 16, methyl ((1S)-1-(((2S)-2-(5-(7′-(2-((2S)-1-((2S)-2-((methoxycarbonyl)amino)-3-methylbutanoyl)-2-pyrrolidinyl)-1H-imidazol-5-yl)spiro[cyclobutane-1,9′-fluoren]-2′-yl)-1H-imidazol-2-yl)-1-pyrrolidinyl)carbonyl)-2-methylpropyl)carbamate], the pEC50 (in general, the EC50 on a negative log10 scale, so that one unit is a factor of ten) was 10.00 to 12.00.
`COC(=O)N[C@@H](C)C(=O)N1CCC[C@H]1c1ncc(-c2ccc3c(c2)C2(CCC2)c2cc(-c4cnc([C@@H]5CCCN5C(=O)[C@H](C)NC(=O)OC)[nH]4)ccc2-3)[nH]1` [Example 17]: the negative-log EC50 (pEC50) is 10.00 to 12.00.
Under `COC(=O)N[C@H](C(=O)N1CCC[C@H]1c1ncc(-c2ccc3c(c2)oc2cc(-c4cnc([C@@H]5CCCN5C(=O)[C@@H](NC(=O)OC)C(C)C)[nH]4)ccc23)[nH]1)C(C)C` [Example 18, methyl ((1S)-1-(((2S)-2-(4-(7-(2-((2S)-1-((2S)-2-((methoxycarbonyl)amino)-3-methylbutanoyl)-2-pyrrolidinyl)-1H-imidazol-4-yl)dibenzo[b,d]furan-3-yl)-1H-imidazol-2-yl)-1-pyrrolidinyl)carbonyl)-2-methylpropyl)carbamate] stands 10.00 to 12.00; under `COC(=O)N[C@H](C(=O)N1CCC[C@H]1c1ncc(-c2ccc3c(c2)oc2cc(-c4cnc([C@@H]5CCCN5C(=O)[C@@H](NC(=O)OC)C5CC5)[nH]4)ccc23)[nH]1)C1CC1` [Example 19, dimethyl (dibenzo[b,d]furan-3,7-diylbis(1H-imidazole-4,2-diyl(2S)-2,1-pyrrolidinediyl((1S)-1-cyclopropyl-2-oxo-2,1-ethanediyl)))biscarbamate], 10.00 to 12.00; under `COC(=O)N[C@H](C(=O)N1CCC[C@H]1c1ncc(-c2ccc3c(c2)oc2cc(-c4cnc([C@@H]5CCCN5C(=O)[C@@H](NC(=O)OC)C(C)(C)C)[nH]4)ccc23)[nH]1)C(C)(C)C` [Example 20, methyl ((1S)-1-(((2S)-2-(4-(7-(2-((2S)-1-((2S)-2-((methoxycarbonyl)amino)-3,3-dimethylbutanoyl)-2-pyrrolidinyl)-1H-imidazol-4-yl)dibenzo[b,d]furan-3-yl)-1H-imidazol-2-yl)-1-pyrrolidinyl)carbonyl)-2,2-dimethylpropyl)carbamate], 10.00 to 12.00.
On to `COC(=O)N[C@H](C(=O)N1CCC[C@H]1c1ncc(-c2ccc3c(c2)oc2cc(-c4cnc([C@@H]5CCCN5C(=O)[C@@H](NC(=O)OC)C(C)(C)O)[nH]4)ccc23)[nH]1)C(C)(C)O` [Example 21, methyl ((1S)-2-hydroxy-1-(((2S)-2-(4-(7-(2-((2S)-1-((2S)-3-hydroxy-2-((methoxycarbonyl)amino)-3-methylbutanoyl)-2-pyrrolidinyl)-1H-imidazol-4-yl)dibenzo[b,d]furan-3-yl)-1H-imidazol-2-yl)-1-pyrrolidinyl)carbonyl)-2-methylpropyl)carbamate], for which the negative logarithm of the EC50 (pEC50) is 10.00 to 12.00.
Turning to `COC(=O)N[C@@H](C)C(=O)N1CCC[C@H]1c1ncc(-c2ccc3c4ccc(-c5cnc([C@@H]6CCCN6C(=O)[C@H](C)NC(=O)OC)[nH]5)cc4n(C)c3c2)[nH]1` [Example 22, methyl ((1S)-2-((2S)-2-(5-(7-(2-((2S)-1-(N-(methoxycarbonyl)-L-alanyl)-2-pyrrolidinyl)-1H-imidazol-5-yl)-9-methyl-9H-carbazol-2-yl)-1H-imidazol-2-yl)-1-pyrrolidinyl)-1-methyl-2-oxoethyl)carbamate], the negative logarithm of the EC50 (pEC50) is 7.00 to 9.00.

(Values after patent publication US7704992B2, “Hepatitis C virus inhibitors” (Bristol-Myers Squibb Company, priority 2008, dated 2010).)
